{"source": "patent US20050272647A1", "about": "“Arthrodial cartilage extracellular matrix degradation inhibitor” (priority 2002, published 2005)", "key": {"[1]": {"test_system": "rabbit knee articular cartilage primary culture cells", "assay": "PG destruction inhibitory activity in rabbit cartilage primary culture cell (stimulation with retinoic acid)", "conditions": "Oryctolagus cuniculus, 48 h, read-out: PG degradation inhibition (%)", "experimental": "After a rabbit (Japanese white race, male, 1.0 to 1.5 kg) was killed under excessive anesthesia, the knee joint was taken out and the cartilage layer on the articular surface was abraded and cut finely. […] After 3 days, the medium was replaced by 200 μl of DMEM/10% FBS medium containing 50 μg/ml ascorbic acid (hereinafter referred to as ascorbic acid medium) and two days of culture was further repeated twice. Thereafter, the rabbit knee articular cartilage primary culture cells were cultured in 200 μl of the ascorbic acid medium containing Na2 35SO4 of a final concentration of 10 μCi/ml for 3 days to achieve labeling, followed by washing with 200 μl of the ascorbic acid medium three times and 1 day of culture in 200 μl of the ascorbic medium. The culture was stimulated with all-trans retinoic acid (manufactured by Sigma) of a final concentration of 1 μM. A culture supernatant after 48 hours was recovered in an each amount of 20 μl and radioactivity was measured using Topcount (manufactured by Packard). The test compound was added simultaneously with the start of the stimulation and a PG degradation inhibitory activity was calculated as percentage where a group to which retinoic acid was not added was defined as 100% and a group to which retinoic acid was added was defined as 0%."}, "[2]": {"test_system": "HDAC", "conditions": "literature value, cited from earlier work; for IC50: read-out: HDAC inhibitory activity (IC50 value); for HDAC inhibitory activity (order of magnitude): Nat. Rev. Drug Discov. 2002"}, "[3]": {"test_system": "rabbit cartilage primary culture cells", "assay": "PG destruction inhibitory activity in rabbit cartilage primary culture cell (stimulation with IL-1)", "conditions": "Oryctolagus cuniculus, 48 h, read-out: PG degradation inhibition (%)", "experimental": "After a rabbit (Japanese white race, male, 1.0 to 1.5 kg) was killed under excessive anesthesia, the knee joint was taken out and the cartilage layer on the articular surface was abraded and cut finely. […] After 3 days, the medium was replaced by 200 μl of DMEM/10% FBS medium containing 50 μg/ml ascorbic acid (hereinafter referred to as ascorbic acid medium) and two days of culture was further repeated twice. Thereafter, the rabbit knee articular cartilage primary culture cells were cultured in 200 μl of the ascorbic acid medium containing Na2 35SO4 of a final concentration of 10 μCi/ml for 3 days to achieve labeling, followed by washing with 200 μl of the ascorbic acid medium three times and 1 day of culture in 200 μl of the ascorbic medium.\nThey were stimulated with human IL-1β (manufactured by R&D System) of a final concentration of 10 ng/ml. A culture supernatant after 48 hours was recovered in an each amount of 20 μl and radioactivity was measured using Topcount (manufactured by Packard). The test compound was added simultaneously with the start of the stimulation and a PG degradation inhibitory activity was calculated as percentage where a group to which IL-1 was not added was defined as 100% and a group to which IL-1 was added was defined as 0%."}, "[4]": {"test_system": "histone deacetylase fraction", "assay": "HDAC inhibitory activity, [3H]acetylhistone and histone deacetylase fraction (method of Yoshida et al.)", "type": "biochemical", "conditions": "at 30 nM", "experimental": "Specifically, the measurement can be conducted, using [^3H]acetylhistone and a histone deacetylase fraction prepared by the method described in the above reference, adding a test compound to a reaction solution containing [^3H]acetylhistone and DTT, mixing the histone deacetylase fraction after 1 hour of pre-incubation at room temperature, reacting them for 2 hours at room temperature, adding 1M hydrochloric acid and ethyl acetate thereto, and then measuring radioactivity in the ethyl acetate layer separated by centrifugation by a scintillation counter."}}, "note": "Where a name gives a salt, the structure may show the parent alone.", "data": [{"smiles": "CCC(=O)CCCCC[C@@H]1NC(=O)[C@H]2CCCCN2C(=O)[C@H]([C@@H](C)CC)NC(=O)[C@H](Cc2cn(OC)c3ccccc23)NC1=O", "note": "[Apicidin]", "values": [{"measurement": "inhibition at 0.03 µM", "setting": "[1]", "value": 25, "unit": "%"}, {"measurement": "inhibition at 0.3 µM", "setting": "[1]", "value": 92, "unit": "%"}]}, {"smiles": "CCCC(=O)O", "note": "[Butyric acid (Na salt), Butyric acid]", "values": [{"measurement": "IC50", "setting": "[2]", "value": 280000, "unit": "nM"}, {"measurement": "inhibition at 5000 µM", "setting": "[3]", "value": 78, "unit": "%"}, {"measurement": "inhibition at 300 µM", "setting": "[1]", "value": 27, "unit": "%"}, {"measurement": "inhibition at 3000 µM", "setting": "[1]", "value": 93, "unit": "%"}]}, {"smiles": "CC1NC(=O)CC2/C=C/CCSSCC(NC1=O)C(=O)NC(C(C)C)C(O)CC(=O)O2", "note": "(centres unmarked) [Compound A]", "values": [{"measurement": "HDAC inhibition", "setting": "[4]", "value": "about 85%"}, {"measurement": "inhibition at 0.0003 µM", "setting": "[3]", "value": 6, "unit": "%"}, {"measurement": "inhibition at 0.003 µM", "setting": "[3]", "value": 39, "unit": "%"}, {"measurement": "inhibition at 0.03 µM", "setting": "[3]", "value": 61, "unit": "%"}, {"measurement": "inhibition at 0.001 µM", "setting": "[1]", "value": 20, "unit": "%"}, {"measurement": "inhibition at 0.01 µM", "setting": "[1]", "value": 51, "unit": "%"}, {"measurement": "inhibition at 0.1 µM", "setting": "[1]", "value": 93, "unit": "%"}, {"measurement": "inhibition at 1 µM", "setting": "[1]", "value": 98, "unit": "%"}]}, {"smiles": "C/C=C1\\NC(=O)[C@H]2CSSCC/C=C/[C@H](CC(=O)N[C@H](C(C)C)C(=O)N2)OC(=O)[C@H](C(C)C)NC1=O", "note": "[FK228]", "values": [{"measurement": "inhibition at 0.03 µM", "setting": "[3]", "value": 97, "unit": "%"}, {"measurement": "inhibition at 0.01 µM", "setting": "[1]", "value": 39, "unit": "%"}, {"measurement": "inhibition at 0.1 µM", "setting": "[1]", "value": 97, "unit": "%"}]}, {"smiles": "Nc1ccccc1NC(=O)c1ccc(CNC(=O)OCc2cccnc2)cc1", "note": "[MS-27-275]", "values": [{"measurement": "IC50", "setting": "[2]", "value": 2000, "unit": "nM"}]}, {"smiles": "O=C(/C=C/c1ccc(CN(CCO)CCc2c[nH]c3ccccc23)cc1)NO", "note": "[NVP-LAQ824]", "values": [{"measurement": "IC50", "setting": "[2]", "value": 30, "unit": "nM"}, {"measurement": "inhibition at 0.03 µM", "setting": "[1]", "value": 26, "unit": "%"}, {"measurement": "inhibition at 0.3 µM", "setting": "[1]", "value": 90, "unit": "%"}]}, {"smiles": "CC(/C=C/C(=O)NO)=C\\[C@@H](C)C(=O)c1ccc(N(C)C)cc1", "note": "[Trichostatin A]", "values": [{"measurement": "IC50", "setting": "[2]", "value": 2.1, "unit": "nM"}, {"measurement": "inhibition at 0.1 µM", "setting": "[1]", "value": 40, "unit": "%"}, {"measurement": "inhibition at 1 µM", "setting": "[1]", "value": 58, "unit": "%"}]}, {"smiles": "CCCC(CCC)C(=O)O", "note": "[Valproic acid (Na salt), Valproic acid]", "values": [{"measurement": "inhibition at 300 µM", "setting": "[1]", "value": 49, "unit": "%"}, {"measurement": "inhibition at 1000 µM", "setting": "[1]", "value": 46, "unit": "%"}, {"measurement": "inhibition at 3000 µM", "setting": "[1]", "value": 79, "unit": "%"}]}, {"smiles": "CCCC(CCC)C(=O)O", "note": "[Valproic acid]", "values": [{"measurement": "HDAC inhibitory activity (order of magnitude)", "setting": "[2]", "value": "mM order"}]}, {"smiles": "CCCC(=O)O", "note": "[butyric acid]", "values": [{"measurement": "HDAC inhibitory activity (order of magnitude)", "setting": "[2]", "value": "mM order"}]}]}
